Data from paper PMC5384962, “First-in-human studies of seletalisib, an orally bioavailable small-molecule PI3Kδ inhibitor for the treatment of immune and inflammatory diseases” (European Journal of Clinical Pharmacology, 2017).
Where two headings read alike, the source gives them in different places.

Assays:
[1] = set-up: method as in ref 15 = [15]; 15. UCB data on file: UCB1446368-in vivo-rep; November 2011; UCB BioPharma sprl Belgium and DMPK10_062 UCB1446368 iv 1mpk male HW rat BDC; August 2010; UCB BioPharma sprl Belgium; settings: preclinical animal studies; cited from earlier work
[2] = Study-2 multiple-dose day 14 pharmacokinetics (plasma); assay type: in vivo, human; settings: for CLss/F / Cmaxss / Vzss/F / AUC(0-t) / MRT / half-life / LF: geo mean (GeoCV%); for AUC(0-t) / MRT / half-life / Tmax: human, plasma, oral; for LF: linearity factor AUC(0–24)ss/AUC
Source text: (§1) These were phase I, randomised, double-blind, placebo-controlled studies designed to evaluate the safety, tolerability, PK and PD profiles of seletalisib following oral administration of single ascending doses and multiple ascending doses. Study-1 was a first-in-human, double-blind (sponsor-, investigator- and subject-blind) study that had two parts: Part-A evaluated seletalisib (single ascending doses) in healthy adults (including evaluation of food effects; Table 1); Part-B evaluated seletalisib (multiple ascending doses) in healthy adults and subjects with mild-to-moderate psoriasis. Study-2 was also a double-blind study of seletalisib (single and multiple ascending doses) in healthy subjects, which investigated higher doses.
(§2) Plasma concentrations of seletalisib were measured by high-performance liquid chromatography with tandem mass spectrometry (see Online Resource S1 for further details). The following PK parameters were determined in each study: AUC for seletalisib, maximum observed plasma concentration of seletalisib after a single dose (Cmax) and at steady-state (Cmaxss), time of occurrence of Cmax (tmax, obtained directly from the observed plasma concentration-time curves), minimum observed plasma concentration of seletalisib at steady-state immediately before the next dose would be administered (Ctrough), apparent terminal half-life, apparent volume of distribution after single dosing (Vz/F) and at steady-state (Vzss/F) and apparent total body clearance after single dosing (CL/F) and at steady-state (CLss/F). Accumulation factor based on AUC(0–24) [R(AUC)] and accumulation factor based on Cmax [R(Cmax)] were determined on multiple dose day 14. The following study-specific PK parameters were also determined: Study-1, total amount of seletalisib excreted in urine (Ae), renal clearance (CLr) and fraction of drug excreted in urine; Study-2, AUC(0–10) in BID dose groups, terminal elimination rate constant in plasma (λz), mean residence time (MRT) and linearity factor (LF [AUC(0–24)ss/AUC]).
(§3) Methods for the calculation of seletalisib PK parameters are detailed in Online Resource S1.
(§4) Seletalisib PK parameters were calculated via non-compartmental analysis methods from the individual concentration-time data using Phoenix WinNonlin version 6.2 (Certara, Princeton, NJ, USA). Urine (Study-1 only) and plasma PK parameters of seletalisib were reported for each subject and summarised by study part and dose group. Geometric mean and percentage geometric coefficient of variation (GeoCV%) were reported for all parameters except for tmax, which was reported using median and range. Dose proportionality for AUC and Cmax at Day_1 (Study-1 [Part-A & Part-B]; Study-2, single ascending dose-Day_1) and at steady state at Day_14 (Study-1 [Part-B]; Study-2, multiple ascending dose-Day_14) was examined via the power model and reported graphically. In Study-1, an assessment of food effect (fed versus fasted) was made for Cmax and AUC from the data for subjects who received the same dose in fed and fasted states in Part-A.

[3] = Study-2 single-dose pharmacokinetics (plasma); assay type: in vivo, human; settings: for AUC(0-t) / half-life / Cmax / Tmax / AUC / MRT / Vd/F: human, plasma, oral; for Vd/F: read-out: Vz/F
Source text: as §1, §2, §3, §4

[4] = power model, Study-2 multiple-dose Day 14, QD groups
[5] = Study-2 single dose, 30 mg QD cohort, geo mean (GeoCV%)
[6] = Study-2 single dose, 45 mg QD cohort, geo mean (GeoCV%)
[7] = Study-2 single dose, 60 mg QD cohort, geo mean (GeoCV%)
[8] = Study-2 single dose, 90 mg QD cohort, geo mean (GeoCV%)

SMILES: [O-][n+]1cccc(-c2nc3c(Cl)cccc3cc2[C@@H](Nc2ncnc3cccnc23)C(F)(F)F)c1 [Seletalisib, seletalisib]
- route of elimination [1]: primarily eliminated by combined hepatic metabolism and biliary excretion
- CLss/F ([2]; Study-2, 30 mg QD, Day 14): 2.13 (39.1) L/h
- Cmaxss ([2]; Study-2, 30 mg QD, Day 14): 897.8 (35.4) ng/mL
- Vzss/F ([2]; Study-2, 30 mg QD, Day 14): 64.8 (24.2) L
- CLss/F ([2]; Study-2, 45 mg QD, Day 14): 2.65 (36.9) L/h
- Cmaxss ([2]; Study-2, 45 mg QD, Day 14): 1114 (27.7) ng/mL
- Vzss/F ([2]; Study-2, 45 mg QD, Day 14): 74.5 (27.9) L
- CLss/F ([2]; Study-2, 60 mg QD, Day 14): 2.00 (32.5) L/h
- Cmaxss ([2]; Study-2, 60 mg QD, Day 14): 1957 (30.2) ng/mL
- Vzss/F ([2]; Study-2, 60 mg QD, Day 14): 56.7 (33.3) L
- CLss/F ([2]; Study-2, 90 mg QD, Day 14): 2.33 (19.7) L/h
- Cmaxss ([2]; Study-2, 90 mg QD, Day 14): 2355 (17.8) ng/mL
- Vzss/F ([2]; Study-2, 90 mg QD, Day 14): 68.0 (23.9) L
- AUC(0-t) ([2]; 30 mg, Study-2, 30 mg BID, Day 14, read-out: AUC(0–10)): 10600 ng·h/mL
- AUC(0-t) ([2]; 30 mg, Study-2, 30 mg QD, Day 14, read-out: AUC(0–24)): 14100 ng·h/mL
- AUC(0-t) ([2]; 30 mg, Study-2, 30 mg QD, Day 14, read-out: AUC(0–t)): 24900 ng·h/mL
- AUC(0-t) ([2]; 45 mg, Study-2, 45 mg QD, Day 14, read-out: AUC(0–24)): 17000 ng·h/mL
- AUC(0-t) ([2]; 45 mg, Study-2, 45 mg QD, Day 14, read-out: AUC(0–t)): 30100 ng·h/mL
- AUC(0-t) ([2]; 60 mg, Study-2, 60 mg QD, Day 14, read-out: AUC(0–24)): 30000 ng·h/mL
- AUC(0-t) ([2]; 60 mg, Study-2, 60 mg QD, Day 14, read-out: AUC(0–t)): 51600 ng·h/mL
- AUC(0-t) ([2]; 90 mg, Study-2, 90 mg QD, Day 14, read-out: AUC(0–24)): 38600 ng·h/mL
- AUC(0-t) ([2]; 90 mg, Study-2, 90 mg QD, Day 14, read-out: AUC(0–t)): 67600 ng·h/mL
- MRT ([2]; Study-2, 30 mg QD, Day 14): 24.9 h
- half-life ([2]; Study-2, 30 mg QD, Day 14): 24.6 h
- Tmax ([2]; Study-2, 30 mg QD, Day 14, median (range), read-out: tmax): 4 h
- MRT ([2]; Study-2, 45 mg QD, Day 14): 25.1 h
- half-life ([2]; Study-2, 45 mg QD, Day 14): 28.5 h
- Tmax ([2]; Study-2, 45 mg QD, Day 14, median (range), read-out: tmax): 4 h
- MRT ([2]; Study-2, 60 mg QD, Day 14): 24.2 h
- half-life ([2]; Study-2, 60 mg QD, Day 14): 24.6 h
- Tmax ([2]; Study-2, 60 mg QD, Day 14, median (range), read-out: tmax): 3.5 h
- MRT ([2]; Study-2, 90 mg QD, Day 14): 24.7 h
- half-life ([2]; Study-2, 90 mg QD, Day 14): 24.6 h
- Tmax ([2]; Study-2, 90 mg QD, Day 14, median (range), read-out: tmax): 4 h
- Tmax ([2]; Study-2, day 14, fed, range across groups, read-out: time to peak plasma concentration): 3.5 to 4 h
- LF ([2]; Study-2, 30 mg QD, Day 14): 1.275 (16.7)
- LF ([2]; Study-2, 45 mg QD, Day 14): 1.028 (26.4)
- LF ([2]; Study-2, 60 mg QD, Day 14): 1.160 (31.8)
- LF ([2]; Study-2, 90 mg QD, Day 14): 1.127 (25.9)
- Dose proportionality of Cmaxss (ng/mL): Dose (beta), Estimate [2, 4]: 0.96
- Dose proportionality of Cmaxss (ng/mL): Intercept, Estimate [2, 4]: 3.52
- CL/F [3, 5]: 2.65 (30.4) L/h
- CL/F [3, 6]: 2.61 (33.0) L/h
- CL/F [3, 7]: 2.19 (32.3) L/h
- CL/F [3, 8]: 2.58 (33.3) L/h
- AUC(0-t) ([3]; 30 mg, Study-2 single dose, 30 mg QD cohort, geo mean (GeoCV%), read-out: AUC(0–24)): 6490 ng·h/mL
- AUC(0-t) ([3]; 30 mg, Study-2 single dose, 30 mg QD cohort, geo mean (GeoCV%), read-out: AUC(0–t)): 10200 ng·h/mL
- AUC(0-t) ([3]; 30 mg, Study-2 single-dose part, 30 mg BID cohort, geo mean (GeoCV%), read-out: AUC(0–10)): 3500 ng·h/mL
- AUC(0-t) ([3]; 45 mg, Study-2 single dose, 45 mg QD cohort, geo mean (GeoCV%), read-out: AUC(0–24)): 9280 ng·h/mL
- AUC(0-t) ([3]; 45 mg, Study-2 single dose, 45 mg QD cohort, geo mean (GeoCV%), read-out: AUC(0–t)): 15100 ng·h/mL
- AUC(0-t) ([3]; 60 mg, Study-2 single dose, 60 mg QD cohort, geo mean (GeoCV%), read-out: AUC(0–24)): 16300 ng·h/mL
- AUC(0-t) ([3]; 60 mg, Study-2 single dose, 60 mg QD cohort, geo mean (GeoCV%), read-out: AUC(0–t)): 25100 ng·h/mL
- AUC(0-t) ([3]; 90 mg, Study-2 single dose, 90 mg QD cohort, geo mean (GeoCV%), read-out: AUC(0–24)): 19700 ng·h/mL
- AUC(0-t) ([3]; 90 mg, Study-2 single dose, 90 mg QD cohort, geo mean (GeoCV%), read-out: AUC(0–t)): 31200 ng·h/mL
- half-life ([3]; Study-2, range across dose groups, read-out: geometric mean t1/2): 18.1 to 22.4 h
- Cmax ([3]; Study-2, single dose, range across groups, read-out: geometric mean Cmax): 517 to 1510 ng/mL
- Tmax ([3]; Study-2, single dose, range across groups, read-out: median tmax): 3 to 4 h
- AUC [3, 5]: 11300 ng·h/mL
- MRT [3, 5]: 22.1 h
- Cmax ([3]; Study-2 single dose, 30 mg QD cohort, geo mean (GeoCV%), read-out: Cmax): 517 ng/mL
- Vd/F [3, 5]: 74.4 L
- half-life ([3]; Study-2 single dose, 30 mg QD cohort, geo mean (GeoCV%), read-out: t1/2 (converted)): 19.5 h
- Tmax ([3]; Study-2 single dose, 30 mg QD cohort, median (range), read-out: tmax): 4 h
- AUC [3, 6]: 17300 ng·h/mL
- MRT [3, 6]: 23 h
- Cmax ([3]; Study-2 single dose, 45 mg QD cohort, geo mean (GeoCV%), read-out: Cmax): 691 ng/mL
- Vd/F [3, 6]: 84.2 L
- half-life ([3]; Study-2 single dose, 45 mg QD cohort, geo mean (GeoCV%), read-out: t1/2 (converted)): 22.4 h
- Tmax ([3]; Study-2 single dose, 45 mg QD cohort, median (range), read-out: tmax): 4 h
- AUC [3, 7]: 27400 ng·h/mL
- MRT [3, 7]: 21.5 h
- Cmax ([3]; Study-2 single dose, 60 mg QD cohort, geo mean (GeoCV%), read-out: Cmax): 1250 ng/mL
- Vd/F [3, 7]: 57.2 L
- half-life ([3]; Study-2 single dose, 60 mg QD cohort, geo mean (GeoCV%), read-out: t1/2 (converted)): 18.1 h
- Tmax ([3]; Study-2 single dose, 60 mg QD cohort, median (range), read-out: tmax): 3 h
- AUC [3, 8]: 34900 ng·h/mL
- MRT [3, 8]: 22.4 h
- Cmax ([3]; Study-2 single dose, 90 mg QD cohort, geo mean (GeoCV%), read-out: Cmax): 1510 ng/mL
- Vd/F [3, 8]: 77.3 L
- half-life ([3]; Study-2 single dose, 90 mg QD cohort, geo mean (GeoCV%), read-out: t1/2 (converted)): 20.8 h
- Tmax ([3]; Study-2 single dose, 90 mg QD cohort, median (range), read-out: tmax): 4 h
